Earlier results in paper PMC4549746, “Zearalenone in the Intestinal Tissues of Immature Gilts Exposed per os to Mycotoxins” (Toxins, 2015).
Like-named read-outs stand apart in the source and are kept apart here.

Settings: in vitro studies, cited from earlier work

C[C@H]1CCCC(=O)CCC/C=C/c2cc(O)cc(O)c2C(=O)O1 [ZEN, zearalenone]
ingested ZEN absorbed in the small intestine (ref 12): 55% | ingested ZEN absorbed in the small intestine (ref 26): 51%
